Laboratory results published in ChEMBL document CHEMBL1909046, “DrugMatrix in vitro pharmacology data”.

Legend:
[1] = molecular target: T1, 5-hydroxytryptamine receptor 1A (Rattus norvegicus, UniProt P19327); assay type: cell membranes, CHO-K1, Membrane; note: in other assays of this panel Not Active means under 50% inhibition at 10 µM
T1 sequence (P19327 whole entry): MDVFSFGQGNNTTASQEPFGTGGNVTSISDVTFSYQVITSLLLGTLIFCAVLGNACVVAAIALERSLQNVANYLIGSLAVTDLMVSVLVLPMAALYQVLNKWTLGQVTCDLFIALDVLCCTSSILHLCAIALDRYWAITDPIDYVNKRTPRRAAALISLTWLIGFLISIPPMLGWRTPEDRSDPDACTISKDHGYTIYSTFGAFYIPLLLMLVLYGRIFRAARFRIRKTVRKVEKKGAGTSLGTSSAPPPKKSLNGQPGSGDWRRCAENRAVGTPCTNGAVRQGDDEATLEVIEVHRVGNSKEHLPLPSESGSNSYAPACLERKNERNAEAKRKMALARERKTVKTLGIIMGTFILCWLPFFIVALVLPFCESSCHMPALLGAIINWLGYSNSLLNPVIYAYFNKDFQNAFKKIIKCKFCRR

[2] = molecular target: Protein phosphatase 3 catalytic subunit alpha (Homo sapiens, UniProt Q08209); set-up: species or system Escherichia coli;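 note: inhibition of calcineurin (PP2B) enzyme activity, measured with DiFMUP as the substrate; in other assays of this panel Not Active means under 50% inhibition at 10 µM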
Estrogen receptor beta = Estrogen receptor beta (Homo sapiens, UniProt Q92731); settings: sf9; note: in other assays of this panel Not Active means under 50% inhibition at 10 µM
Sequence of Estrogen receptor beta (Q92731 whole entry): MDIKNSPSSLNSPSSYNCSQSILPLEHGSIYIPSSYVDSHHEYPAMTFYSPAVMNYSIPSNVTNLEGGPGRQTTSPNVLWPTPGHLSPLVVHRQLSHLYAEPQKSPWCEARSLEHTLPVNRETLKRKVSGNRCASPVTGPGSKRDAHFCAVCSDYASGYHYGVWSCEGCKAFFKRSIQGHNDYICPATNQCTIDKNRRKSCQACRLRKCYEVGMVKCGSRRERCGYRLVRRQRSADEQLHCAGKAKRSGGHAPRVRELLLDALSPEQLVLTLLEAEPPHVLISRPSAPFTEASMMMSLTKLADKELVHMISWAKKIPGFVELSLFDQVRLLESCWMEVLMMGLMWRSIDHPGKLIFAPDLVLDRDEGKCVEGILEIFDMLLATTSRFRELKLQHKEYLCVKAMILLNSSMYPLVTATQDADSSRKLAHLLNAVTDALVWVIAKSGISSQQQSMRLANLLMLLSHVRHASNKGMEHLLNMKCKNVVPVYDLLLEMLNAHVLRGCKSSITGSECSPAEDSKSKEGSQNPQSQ

[3] = molecular target: T2, Neuropeptide Y receptor type 2 (Homo sapiens, UniProt P49146); assay type: cell membranes, Membrane; settings: kan-ts; note: in other assays of this panel Not Active means under 50% inhibition at 10 µM
T2 sequence (P49146 whole entry): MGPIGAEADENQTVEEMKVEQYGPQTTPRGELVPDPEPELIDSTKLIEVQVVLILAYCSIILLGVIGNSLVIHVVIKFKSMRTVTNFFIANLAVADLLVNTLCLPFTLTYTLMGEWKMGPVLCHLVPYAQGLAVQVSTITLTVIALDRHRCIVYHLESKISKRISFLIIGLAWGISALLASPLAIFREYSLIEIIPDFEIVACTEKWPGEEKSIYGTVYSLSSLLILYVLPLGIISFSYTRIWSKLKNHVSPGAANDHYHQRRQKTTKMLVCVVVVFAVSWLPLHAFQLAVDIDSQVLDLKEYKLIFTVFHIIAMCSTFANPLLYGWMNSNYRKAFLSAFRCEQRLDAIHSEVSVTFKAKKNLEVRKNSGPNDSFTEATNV

D(3) dopamine receptor = D(3) dopamine receptor (Homo sapiens, UniProt P35462); assay: DRUGMATRIX: Dopamine D3 radioligand binding (ligand: [3H] Spiperone); assay type: cell membranes, CHO, Membrane
Sequence of D(3) dopamine receptor (P35462 whole entry): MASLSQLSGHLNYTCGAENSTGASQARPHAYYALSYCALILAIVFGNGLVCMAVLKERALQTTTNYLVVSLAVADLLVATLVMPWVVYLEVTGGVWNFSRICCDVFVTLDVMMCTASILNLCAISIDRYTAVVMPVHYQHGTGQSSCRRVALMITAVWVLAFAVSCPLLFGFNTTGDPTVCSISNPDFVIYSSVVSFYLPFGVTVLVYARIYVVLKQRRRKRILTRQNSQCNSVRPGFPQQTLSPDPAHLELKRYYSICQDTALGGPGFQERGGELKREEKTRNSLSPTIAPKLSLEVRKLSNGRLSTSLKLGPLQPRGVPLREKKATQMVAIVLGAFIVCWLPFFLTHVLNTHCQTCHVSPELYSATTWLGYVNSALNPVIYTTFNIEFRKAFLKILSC

Cytochrome P450 2A6 = molecular target: T3, Cytochrome P450 2A6 (Homo sapiens, UniProt P11509); settings: bti-tn-5b1-4; note: in other assays of this panel Not Active means under 50% inhibition at 10 µM
T3 sequence (P11509 whole entry): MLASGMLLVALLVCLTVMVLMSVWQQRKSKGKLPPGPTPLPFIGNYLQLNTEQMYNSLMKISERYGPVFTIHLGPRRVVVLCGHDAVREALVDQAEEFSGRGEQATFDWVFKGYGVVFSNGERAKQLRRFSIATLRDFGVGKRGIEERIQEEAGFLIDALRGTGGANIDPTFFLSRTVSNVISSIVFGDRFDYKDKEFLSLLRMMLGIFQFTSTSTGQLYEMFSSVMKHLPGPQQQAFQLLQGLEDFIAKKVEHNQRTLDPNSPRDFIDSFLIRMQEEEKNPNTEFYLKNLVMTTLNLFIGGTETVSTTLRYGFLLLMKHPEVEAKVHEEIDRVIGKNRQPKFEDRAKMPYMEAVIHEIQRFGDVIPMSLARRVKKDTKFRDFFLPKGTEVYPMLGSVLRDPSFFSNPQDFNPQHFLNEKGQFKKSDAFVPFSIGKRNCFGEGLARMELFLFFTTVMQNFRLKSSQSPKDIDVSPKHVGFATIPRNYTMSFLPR

Compound	IC50 ([1]; read-out: IC50)	Ki ([1]; read-out: Ki)	IC50 [2]	IC50 (Estrogen receptor beta)	IC50 [3]	IC50 (D(3) dopamine receptor; cho)	IC50 (Cytochrome P450 2A6)	Ki (Cytochrome P450 2A6)	IC50 ([1]; cho-k1)	IC50 (D(3) dopamine receptor; read-out: IC50)	Ki (D(3) dopamine receptor; read-out: Ki)	Ki ([1]; cho-k1)	Ki [2]	Ki (Estrogen receptor beta)	Ki [3]	Ki (D(3) dopamine receptor; cho)	IC50 ([2]; read-out: IC50)
COc1nc(C)nc(Cl)c1NC1=NCCN1 [MOXONIDINE]	702 nM	401 nM	Not Active	Not Active	Not Active	Not Active	Not Active	Not Active									
N[C@@H](Cc1ccc(O)c(O)c1)C(=O)O [LEVODOPA]			Not Active	Not Active	Not Active	Not Active	Not Active	Not Active	Not Active								
OCCN(CCO)c1nc(N2CCCCC2)c2nc(N(CCO)CCO)nc(N3CCCCC3)c2n1 [DIPYRIDAMOLE]			Not Active	Not Active	Not Active	Not Active	Not Active	Not Active	Not Active								
Cn1ccnc1S [METHIMAZOLE]			Not Active	Not Active	Not Active	Not Active	Not Active	Not Active	Not Active								
CC(=O)[C@@]1(O)CC[C@H]2[C@@H]3C[C@H](C)C4=CC(=O)CC[C@]4(C)[C@H]3CC[C@@]21C			Not Active	Not Active	Not Active	Not Active	Not Active	Not Active	Not Active								
C=CCC1(C(C)CCC)C(=O)NC(=O)NC1=O (stereo not drawn) [SECOBARBITAL]			Not Active	Not Active	Not Active	Not Active	Not Active	Not Active	Not Active								
C[C@@H]1CN(c2c(F)c(N)c3c(=O)c(C(=O)O)cn(C4CC4)c3c2F)C[C@H](C)N1 [SPARFLOXACIN]			Not Active	Not Active	Not Active	Not Active	Not Active	Not Active	Not Active								
O=c1ncn2nc(Sc3ccc(F)cc3F)ccc2c1-c1c(Cl)cccc1Cl [NEFLAMAPIMOD]			Not Active	Not Active	Not Active	Not Active	Not Active	Not Active	Not Active								
Nc1c2c(nc3ccccc13)CCCC2 [TACRINE]			Not Active	Not Active	Not Active	Not Active	Not Active	Not Active	Not Active								
CO[C@H]1/C=C/O[C@@]2(C)Oc3c(C)c(O)c4c(O)c(c(/C=N/N5CCN(C)CC5)c(O)c4c3C2=O)NC(=O)/C(C)=C\C=C\[C@H](C)[C@H](O)[C@@H](C)[C@@H](O)[C@@H](C)[C@H](OC(C)=O)[C@@H]1C [RIFAMPIN]			Not Active	Not Active	Not Active	Not Active	Not Active	Not Active	Not Active								
CCCCc1oc2ccccc2c1C(=O)c1cc(I)c(OCCN(CC)CC)c(I)c1 [AMIODARONE]			Not Active	Not Active	Not Active		Not Active	Not Active	Not Active								
CCOC(=O)N1CCC(=C2c3ccc(Cl)cc3CCc3cccnc32)CC1 [LORATADINE]			Not Active	Not Active	Not Active	Not Active	Not Active	Not Active	Not Active								
N[C@@H](Cc1ccc(N(CCCl)CCCl)cc1)C(=O)O			Not Active	Not Active	Not Active	Not Active	Not Active	Not Active	Not Active								
Cc1noc(NS(=O)(=O)c2ccc(N)cc2)c1C [SULFISOXAZOLE]			Not Active	Not Active	Not Active	Not Active	Not Active	Not Active	Not Active								
N[C@@H](Cc1cc(I)c(Oc2ccc(O)c(I)c2)c(I)c1)C(=O)O [LIOTHYRONINE]			Not Active		Not Active	Not Active	Not Active	Not Active	Not Active								
c1ccc([C@H]2CN3CCSC3=N2)cc1 [LEVAMISOLE]			Not Active	Not Active	Not Active	Not Active	Not Active	Not Active	Not Active								
CC1(C)O[C@@H]2C[C@H]3[C@@H]4CCC5=CC(=O)C=C[C@]5(C)[C@@]4(F)[C@@H](O)C[C@]3(C)[C@]2(C(=O)CO)O1 [TRIAMCINOLONE ACETONIDE]			Not Active	Not Active	Not Active	Not Active	Not Active	Not Active	Not Active								
N#CC(C#N)=Cc1ccc(O)c(O)c1 [TYRPHOSTIN 23]			Not Active	Not Active	Not Active	Not Active	Not Active	Not Active	Not Active								
Nc1nc2nc[nH]c2c(=S)[nH]1 [THIOGUANINE]			Not Active	Not Active	Not Active	Not Active	Not Active	Not Active	Not Active								
NS(=O)(=O)c1cc2c(cc1Cl)NC(C(Cl)Cl)NS2(=O)=O (stereo not drawn) [TRICHLORMETHIAZIDE]			Not Active	Not Active	Not Active	Not Active	Not Active	Not Active	Not Active								
CC(C)N1CCN(c2ccc(OCC3COC(Cn4cncn4)(c4ccc(Cl)cc4Cl)O3)cc2)CC1 (stereo not drawn) [TERCONAZOLE]			Not Active	Not Active	Not Active		Not Active	Not Active	Not Active	4710 nM	1600 nM						
CN1CCN(CCCN2c3ccccc3Sc3ccc(Cl)cc32)CC1 [PROCHLORPERAZINE]	950 nM	543 nM	Not Active	Not Active	Not Active		Not Active	Not Active									
CC(C)(C)NC(=O)[C@@H]1C[C@@H]2CCCC[C@@H]2CN1C[C@@H](O)[C@H](Cc1ccccc1)NC(=O)[C@H](CC(N)=O)NC(=O)c1ccc2ccccc2n1	4270 nM	2440 nM	Not Active	Not Active	Not Active		Not Active	Not Active									
SODIUM NITROPRUSSIDE			Not Active	Not Active	Not Active	Not Active	Not Active	Not Active	Not Active			Not Active	Not Active	Not Active	Not Active	Not Active	
NC[C@H]1CC[C@H](C(=O)O)CC1 [TRANEXAMIC ACID]			Not Active	Not Active	Not Active	Not Active	Not Active	Not Active	Not Active								
CC/C(=C(\c1ccccc1)c1ccc(OCCN(C)C)cc1)c1ccccc1 [TAMOXIFEN]	12200 nM	6950 nM			Not Active		Not Active	Not Active		1070 nM	364 nM						30600 nM
Nc1nc2ccc(OC(F)(F)F)cc2s1 [RILUZOLE]			Not Active	Not Active	Not Active	Not Active			Not Active								
Cc1nc2n(c(=O)c1CCN1CCC(c3noc4cc(F)ccc34)CC1)CCCC2 [RISPERIDONE]			Not Active		Not Active		Not Active	Not Active									
CC[C@]1(O)C[C@H]2CN(CCc3c([nH]c4ccccc34)[C@@](C(=O)OC)(c3cc4c(cc3OC)N(C=O)[C@H]3[C@@](O)(C(=O)OC)[C@H](OC(C)=O)[C@]5(CC)C=CCN6CC[C@]43[C@@H]65)C2)C1 [VINCRISTINE]			Not Active		Not Active	Not Active	Not Active	Not Active	Not Active								
